Series [1] concerns human cortical neurons. In words: Aβ neurotoxicity in human cortical neurons (alamarBlue), 2 h pretreatment with inhibitor. The following applies: for Emax: Homo sapiens, Cortical neurone, 72 h, read-out: Max Inh. The format is cell-based. The protocol: (§1) Cultures of human cortical or hippocampal neurons were prepared using a modification of the procedure described in P. Seubert et al. (1992), Nature 359:325-327. Cortical or hippocampal tissue was dissociated by incubation in a trypsin/EDTA solution (0.05% trypsin +0.53 mM EDTA in HBSS; Gibco) for 20 minutes at 37° C. The trypsin was then inactivated by resuspending the cells in serum-containing medium (MEM/FBS): Modified Eagle's Medium (MEM) containing 1% glucose, 1 mM sodium pyruvate, 1 mM glutamine, and supplemented with 10% fetal bovine serum (Gibco). Cells were then pelleted by centrifugation and resuspended in a chemically-defined medium (MEM/B27): MEM containing B27 supplement (Gibco) in place of FBS. Polyethyleneimine (PEI)-coated 6.4-mm (96-well) dishes were rinsed once with MEM/FBS, and then seeded at 0.75-1.25×10^5 cells per well in 0.1 ml MEM/B27. Cultures were maintained in a H2 O-saturated incubator with an atmosphere of 95% air/5% CO2 at 37° C. The culture medium was exchanged twice weekly.
(§2) Amyloid-β (Aβ) stock solutions were prepared as 1 mM stocks in sterile ddH2 O immediately prior to addition to cultures. Rat cortical neurons were exposed to Aβ by removing the culture medium and replacing it with DMEM/N2 or DMEM/B27 containing Aβ1-40. Human cortical neurons were exposed to Aβ by removing the culture medium and replacing it with MEM, MEM/N2, or MEM/B27 containing Aβ1-40. Cultures were maintained for 2-4 days before neuronal survival was quantified using alamarBlue™.
(§3) The alamarBlue™ assay incorporated a proprietary fluorometric/colorimetric metabolic indicator (Alamar Biosciences, Inc.). Viable cells convert alamarBlue™ from an oxidized (non-fluorescent, blue) form to a reduced (fluorescent, red) form. Assays were performed by replacing the culture media with a 10% alamarBlue™ solution in DMEM (rat cortical cultures) or MEM (human cortical cultures). Reduction of alamarBlue™ was determined spectrofluorometrically using a Millipore Cytofluor 2350 Scanner (excitation, […]; emission, 590 nm) and CytoCalc™ software (Millipore Corporation).
The effect of pretreating human cortical neuron cultures with the benzenesulfonamide PLA2 inhibitors and arachidonyl trifluoromethyl ketone prior to exposure to a neurotoxic concentration of Aβ1-40 was determined.
(§4) Human cortical neurons were treated with 50 μM Aβ1-40 and various inhibitors of PLA2. Compounds were added 2 hours prior to Aβ1-40 treatment at concentrations of 390 nM to 100 μM, and were then re-added at the time of Aβ1-40 treatment. Compounds were also added in an identical manner to neuronal cultures in the absence of Aβ1-40. Neuronal survival was determined after 3 days of treatment by alamarBlue®. IC50 is the dose of compound that inhibited Aβ-mediated neurotoxicity by 50%. […] Data represents the mean ± SD (n=3). ND, not detected at the concentration range used.

Series [2] can be described thus: Compound toxicity to human cortical neurons in absence of Aβ1-40, added as in pretreatment protocol. The following applies: human, cortical neurons, no Aβ1-40, 3 days, n=3, ND = not detected at the concentration range used, read-out: TD50 (concentration giving 50% loss of neuronal survival). The class given is cell-based. The protocol:
as §1, §3, §4

Series [3] has as its system human cortical neurons. The description is as above. The class given is cell-based. The following applies: no Aβ1-40, 3 days, n=3. The protocol:
as §1, §3, §4

The subject of series [4] is human cortical neurons. In words: Aβ neurotoxicity / survival of human cortical neurons (alamarBlue), compound added at time of Aβ1-40. The class given is cell-based. The following applies: for Max Inh: 50 μM Aβ1-40, compound 390 nM to 100 μM added at time of Aβ, 3 days, n=3. The protocol:
as §1, §2, §3
The effect of the two benzenesulfonamide inhibitors of PLA2 in Example 2 were examined to determine the dose-dependence of their effect on neuronal survival in human cortical neuron cultures exposed to 0 μM, 25μM, or 50 μM of Aβ1-40 and varying doses of the benzenesulfonamide.
(§5) Human cortical neurons were treated with 50 μM Aβ1-40 and various inhibitors of PLA2 or PLC. Compounds were added at the time of Aβ1-40 treatment at concentrations 390 nM to 100 μM. Compounds were also added to neuronal cultures in the absence of Aβ1-40. Neuronal survival was determined after 3 days of treatment by alamarBlue®. IC50 is the dose of compound that inhibited Aβ-mediated neurotoxicity by 50%. […] Data represents the mean ± SD (n=3). ND, not detected at the concentration range used.

Series [5] can be described thus: Compound toxicity to human cortical neurons in absence of Aβ1-40 (alamarBlue, 3 days). The class given is cell-based. The following applies: human, cortical neurons. As to the method:
as §1, §3, §5

The test system of series [6] is human cortical neurons. The series is described as above. The class given is cell-based. As to the method: as §1, §3, §5
The test system of another series is PLA2. The following applies: literature; cited from earlier work.
Series [7] deals with PLC (phosphatidyl choline-phospholipase C). The settings on record: literature; cited from earlier work.
The next series has as its system AD patients. The following applies: selected group of five AD patients; cited from earlier work.
Series [8] relates to IL-1β release by cultured human cortical microglia. In words: IL-1β release (ELISA) from Aβ1-40-stimulated human microglia. The class given is cell-based. As to the method: (§6) Cultures of human cortical or hippocampal astrocytes and microglia were prepared using a modification of the procedure described for cortical neurons. Cortical tissue from fetuses of 16 to 20 weeks of gestation was washed 3 times in Ca^2+ /Mg^2+ free Hanks balanced salt solution (CMF HBSS) and then dissociated by repeated pipetting. The solution was brought to a final volume of 80 ml CMF HBSS for approximately 10 ml of tissue. DNase (Sigma) was added to a final concentration of 0.05 mg/ml. 20 ml of the solution was passed through one 100 μm nylon cell strained (Falcon). The cells were then centrifuged for 5 minutes at 200×G in an IEC Clinical Centrifuge and resuspended in a trypsin/EDTA solution (0.05% trypsin+0.53 mM EDTA in HBSS; Gibco) and incubated for 20 minutes at 37°C. (10 ml of trypsin was added per 2-3 ml of tissue). The trypsin was then inactivated by adding (MEM/FBS): Modified Eagle's Medium (MEM) containing 1% glucose, 1 mM sodium pyruvate, 1 mM glutamine, and supplemented with 10% fetal bovine serum (JRH). After adding a final concentration of 0.05 mg/ml DNase the cells were resuspended and then pelleted by centrifugation and resuspended in MEM/FBS. 1.6×10^8 cells were seeded in a T-150 tissue culture flask coated with polyethyleneimine (PEI). (10% PEI (Sigma) was diluted 1:10 in H2 O, filtered through a […] unit and then diluted into 150 mM sodium borate pH 8.5 at 1:100. The flasks were coated overnight at room temperature, washed two times in PBS and coated with 20 ml/flask of MEM/FBS at 37° C. for at least one hour prior to plating cells.) Cultures were maintained in a H2 O-saturated incubator with an atmosphere of 95% air/5% CO2 at 37° C. The culture medium was changed one and four days after plating and the cultures were then left undisturbed for at least one week. After approximately two weeks in vitro, the flasks were gently shaken and floating microglia were collected and centrifuged for 5 minutes at 200×G in an IEC Clinical Centrifuge. The microglia were reseeded in 96 well tissue culture plates at a density of 5,000-40,000 cells/well in 125 μl in MEM/FBS. Astrocyte cultures were prepared by multiple passaging of the established mixed brain cell cultures. Each T-150 was incubated for 3-4 minutes at 37°C. with a trypsin/EDTA solution (see above). The trypsin was then inactivated by adding MEM/FBS. The cells were triturated and then pelleted by centrifugation and resuspended in MEM/FBS. The cells from one T-150 were seeded at a 1:30 to 1:5 dilution in T-150's not coated. Just prior to confluency the cells were repassaged by trypsinization as described above. This process was repeated until the cultures were >98% pure astrocytes.
(§7) Cultured microglial cells were treated with 50 μM of Aβ1-40 or vehicle only (Control). The levels of IL-1β, IL-6, and TNF-α released into the culture medium were determined by ELISA assay (R&D Systems) according to manufacturer's instructions.
(§8) The effect of two benzenesulfonamide inhibitors of PLA2 (European Patent Application 468 054) were examined on the activation of microglial cells by Aβ1-40 as in Example 1.
(§9) The effects of the benzenesulfonamide PLA2 inhibitor AN20606 and the selective cytosolic PLA2 inhibitor arachidonyl trifluoromethyl ketone (AN20579) were examined in cultured human cortical microglia for their selectivity for inhibiting microglia activation mediated by amyloid-βpeptide and lipopolysaccharides (LPS). LPS are a major constituent of the cell wall of gama-negative bacteria and are extensively used for generating inflammatory responses in cultured cells and in vivo.

The test system of series [9] is TNF-α release by cultured human cortical microglia. In words: TNF-α release (ELISA) from Aβ1-40-stimulated human microglia. The class given is cell-based. As to the method:
as §6, §7, §8, §9

Series [10] deals with IL-1β release by cultured human cortical microglia. In words: IL-1 release from LPS-stimulated human cortical microglia. The class given is cell-based. As to the method: as §6, §9
Series [11] relates to TNFα release by cultured human cortical microglia. In words: TNF release from LPS-stimulated human cortical microglia. The class given is cell-based. As to the method: as §6, §9
A further series deals with Ca^+2 -independent PLA2. The following applies: Ackermann et al. (1995); cited from earlier work.
The test system of a further series is cPLA2. The settings on record: Street et al. (1993); cited from earlier work.
The mark [12] stands for this setting: 50 μM Aβ1-40, inhibitor 20 μM where present.
[13] abbreviates: 10 ng/ml LPS, inhibitor 20 μM where present.

`O=C(CBr)c1ccc(Br)cc1` [p-Bromophenacyl Bromide]: the Emax in the series on human cortical neurons [1] came to 39%. The CC50 at 72 h in series [2] came to 10 µM. Moreover, the “TD10 (concentration giving 10% loss of neuronal survival)” value with human cortical neurons [3] amounted to 8 µM.
On to `COc1ccc2c(c1)CC[C@@H]1[C@@H]2CC[C@]2(C)[C@@H](NCCCCCCN3C(=O)C=CC3=O)CC[C@@H]12` [U73122, 1-[6-[[(17β)-3-methoxyestra-1,3,5(10)-trien-17-yl]amino]hexyl]-1H-pyrrole-2,5-dione], for which the “Max Inh” value in the series on human cortical neurons [4] turned out to be 66%. Besides, the IC50 with human cortical neurons [4] (Homo sapiens, Cortical neurone, 72 h, read-out: IC50 (dose that inhibited Aβ-mediated neurotoxicity by 50%)) is 9 µM. For the same molecule, the CC50 at 72 h in series [5] (no Aβ1-40, 3 days, 390 nM to 100 μM, n=3, ND = not detected at the concentration range used, read-out: TD50 (concentration giving 50% loss of neuronal survival)) came out at 16 µM. In the series on human cortical neurons [6] (no Aβ1-40, 3 days, 390 nM to 100 μM, n=3), the “TD10 (concentration giving 10% loss of neuronal survival)” value was found to be 11 µM. Also, in the series on PLA2, the “inhibition of PLA2” value is “inhibits both PLA2 and PLC”. The “inhibition of PLC” value in [7] was “inhibits both PLA2 and PLC”.
As to `COc1ccc2c(c1)c(CC(=O)O)c(C)n2C(=O)c1ccc(Cl)cc1` [indomethacin], in the series with AD patients, the “effects on neuropathological progression” value is reported as “no effects on neuropathological progression were noted” and the “reducing symptomatic progression in AD patients” value is “allegedly useful in reducing symptomatic progression”.
As to `CCCCC/C=C\C/C=C\C/C=C\C/C=C\CCCC(=O)C(F)(F)F` [AACOCF3, arachidonyl trifluoromethyl ketone], the “IL-1 Released” value in [8] (setting [12]) was 36 ± 7.2 pg/mL; in [10] (setting [13]) it was 51 ± 6.4 pg/mL. Besides, the “Aβ1-40-mediated IL-1β release, selectivity versus LPS (in words)” value in series [8] (Aβ1-40 versus LPS stimulation) is listed as “selectively inhibited”. Further, the activity at 20 µM in [8] (Homo sapiens, Microglia, 50 μM Aβ1-40 + 20 μM inhibitor, read-out: IL-1 Released, percent in parentheses (relative to Aβ1-40 alone)) was 13%; in series [9] (Homo sapiens, Microglia, 50 μM Aβ1-40 + 20 μM inhibitor, read-out: TNF Released, percent in parentheses (relative to Aβ1-40 alone)), 52%; in series [10] (Homo sapiens, Microglia, 10 ng/ml LPS + 20 μM inhibitor, read-out: IL-1 Released, percent in parentheses (relative to LPS alone)), 225%; in [11] (Homo sapiens, Microglia, 10 ng/ml LPS + 20 μM inhibitor, read-out: TNF Released, percent in parentheses (relative to LPS alone)), 161%. The “TNF Released” value in [9] (setting [12]) was found to be 54.8 ± 9.4 pg/mL; in series [11] (setting [13]), 785 ± 50 pg/mL. The “Aβ1-40-mediated TNFα release, selectivity versus LPS (in words)” value in series [9] (Aβ1-40 versus LPS stimulation) was “selectively inhibited”. For the same molecule, the “LPS-mediated cytokine release, IL-1 (in words)” value in series [10] (LPS stimulation) is listed as “actually enhanced”. The “LPS-mediated cytokine release, TNF (in words)” value in series [11] (LPS stimulation) is given as “actually enhanced”. Also, the “neuronal death resulting from Aβ1-40 exposure (in words)” value with human cortical neurons [1] (pretreatment two hours, three days, FIG. 6) is listed as “substantially decreased neuronal death”. Besides, the “inhibition of Ca^+2 -independent PLA2 activity” value with Ca^+2 -independent PLA2 was “capable of inhibiting”. Also, in the series on cPLA2, the “inhibition of cPLA2” value is “capable of inhibiting”.
Regarding `S=C(S)OC1CC2CC1C1CCCC21` (stereo not shown) [AN20602, potassium 8(9)-tricyclo[5.2.1.0^2,6]decyl xanthate], the “Max Inh” value in the series on human cortical neurons [4] is reported as 25%. In the series on human cortical neurons [4] (Example 5, FIG. 5, three days), the “enhancing neuronal survival after exposure to Aβ (in words)” value is “relatively ineffective in enhancing neuronal survival”. The CC50 at 72 h in series [5] came out at 35 µM. In addition, the “TD10 (concentration giving 10% loss of neuronal survival)” value with human cortical neurons [6] (human, 4320 min) was 13 µM. Also, the “inhibition of PLC” value in series [7] is “PLC inhibitor”.
With `CC1=C(CC/C(C)=C/CCC2=CC[C@H](C3=CC(=O)O[C@H]3O)O[C@H]2O)C(C)(C)CCC1` [Manoalide], in the series with human cortical neurons [1], the Emax turned out to be 49%. The CC50 at 72 h in series [2] is 10 µM. Besides, in the series on human cortical neurons [3], the “TD10 (concentration giving 10% loss of neuronal survival)” value was 8 µM.
